These results are taken from ChEMBL document CHEMBL3046846, “Synthesis of N-Alkyl-2, 3-dimethyl-5-[N-(5-halo-2-methylphenyl)carbamoyl]-6-pyrazinecarboxamides and Their Herbicidal Activity” (J Pestic Sci, 1997).

Series [1] concerns Abutilon theophrasti. Description: Herbicidal activity against Abutilon theophrasti (velvetleaf) at 5000 g/ha after 2 weeks. The format is functional.
For series [2], the system named is Avena fatua. Description: Herbicidal activity against Avena fatua at 5000 g/ha after 2 weeks. It counts as functional.
For series [3], the system named is Veronica persica. Description: Herbicidal activity against Veronica persica at 5000 g/ha after 2 weeks. The format is functional.
Series [4] relates to Glycine max. Description: Herbicidal activity against Glycine max (soybean) at 5000 g/ha after 2 weeks. It counts as organism-based. The following applies: in vivo, 336 h.
Series [5] relates to Galium spurium. Description: Herbicidal activity against Galium spurium var. echinospermon (Wally.) Hayek at 5000 g/ha after 2 weeks. The format is functional.
Series [6] deals with Echinochloa crus-galli. Description: Herbicidal activity against Echinochloa crus-galli (barnyard grass) at 5000 g/ha after 2 weeks. It counts as functional.
The subject of series [7] is Xanthium strumarium. Description: Herbicidal activity against Xanthium strumarium (cocklebur) 5000 g/ha after 2 weeks. The format is functional.
The subject of series [8] is Triticum aestivum. Description: Herbicidal activity against Triticum aestivum (wheat) at 5000 g/ha after 2 weeks. The format is ADME, organism-based. The following applies: in vivo, 336 h.
The subject of series [9] is Abutilon theophrasti. Description: Herbicidal activity against Abutilon theophrasti (velvetleaf) at 500 g/ha after 2 weeks. The format is functional.
In series [10] the test system is Galium spurium. Description: Herbicidal activity against Galium spurium var. echinospermon (Wally.) Hayek at 250 g/ha after 2 weeks. The format is functional.
The test system of series [11] is Triticum aestivum. Description: Herbicidal activity against Triticum aestivum (wheat) at 500 g/ha after 2 weeks. Particulars: in vivo, 336 h. The format is ADME, organism-based.
The subject of series [12] is Galium spurium. Description: Herbicidal activity against Galium spurium var. echinospermon (Wally.) Hayek at 500 g/ha after 2 weeks. It counts as functional.
For series [13], the system named is Echinochloa crus-galli. Description: Herbicidal activity against Echinochloa crus-galli (barnyard grass) at 500 g/ha after 2 weeks. It counts as functional.
Series [14] deals with Abutilon theophrasti. Description: Herbicidal activity against Abutilon theophrasti (velvetleaf) at 250 g/ha after 2 weeks. The format is functional.
For series [15], the system named is Avena fatua. Description: Herbicidal activity against Avena fatua at 250 g/ha after 2 weeks. It counts as functional.
In series [16] the test system is Echinochloa crus-galli. Description: Herbicidal activity against Echinochloa crus-galli (barnyard grass) at 250 g/ha after 2 weeks. The format is functional.
The test system of series [17] is Veronica persica. Description: Herbicidal activity against Veronica persica at 250 g/ha after 2 weeks. The format is functional.
Series [18] relates to Veronica persica. Description: Herbicidal activity against Veronica persica at 500 g/ha after 2 weeks. The format is functional.
Series [19] deals with Glycine max. Description: Herbicidal activity against Glycine max (soybean) at 250 g/ha after 2 weeks. It counts as organism-based. The following applies: in vivo, 336 h.
Series [20] relates to Glycine max. Description: Herbicidal activity against Glycine max (soybean) at 500 g/ha after 2 weeks. It counts as organism-based. Particulars: in vivo, 336 h.
Series [21] deals with Triticum aestivum. Description: Herbicidal activity against Triticum aestivum (wheat) at 250 g/ha after 2 weeks. The format is organism-based. Particulars: in vivo, 336 h.
In series [22] the test system is Avena fatua. Description: Herbicidal activity against Avena fatua at 500 g/ha after 2 weeks. It counts as functional.
For series [23], the system named is Xanthium strumarium. Description: Herbicidal activity against Xanthium strumarium (cocklebur) 250 g/ha after 2 weeks. The format is functional.
Series [24] concerns Xanthium strumarium. Description: Herbicidal activity against Xanthium strumarium (cocklebur) 500 g/ha after 2 weeks. The format is functional.

As to `CNC(=O)c1nc(C)c(C)nc1C(=O)Nc1cc(Cl)ccc1C`, the Activity in the series on Abutilon theophrasti [1] is recorded as less than 10%; with Avena fatua [2], less than 10%; with Veronica persica [3], 95%; in the series with Glycine max [4], less than 10%; in the series with Galium spurium [5], 10%; in the series with Echinochloa crus-galli [6] it was 10%. The Activity with Xanthium strumarium [7] is less than 10%; with Triticum aestivum [8], 10%.
With `CCCCCNC(=O)c1nc(C)c(C)nc1C(=O)Nc1cc(Cl)ccc1C`, the Activity in the series with Abutilon theophrasti [1], in the series on Avena fatua [2], in the series with Veronica persica [3], in the series with Glycine max [4], in the series with Galium spurium [5] and in the series with Echinochloa crus-galli [6] was less than 10% each time. For the same compound, the Activity in the series on Xanthium strumarium [7] and in the series with Triticum aestivum [8] was less than 10% in each case.
`Cc1ccc(Cl)cc1NC(=O)c1nc(C)c(C)nc1C(=O)NCCC(C)C`: the Activity in the series on Abutilon theophrasti [1] was 95%; in the series on Avena fatua [2], 30%; in the series on Veronica persica [3], 95%; with Glycine max [4], less than 10%; in the series on Galium spurium [5] it was 10%; in the series with Echinochloa crus-galli [6] it was 70%. The Activity in the series with Xanthium strumarium [7] was 30%; in the series with Triticum aestivum [8] it was less than 10%.
`CNC(=O)c1nc(C)c(C)nc1C(=O)Nc1cc(F)ccc1C`: the Activity with Abutilon theophrasti [1] is less than 10%; with Avena fatua [2], less than 10%; with Veronica persica [3], 50%; in the series with Glycine max [4], less than 10%; in the series on Galium spurium [5] it was less than 10%; with Echinochloa crus-galli [6], less than 10%. Further, the Activity in the series on Xanthium strumarium [7] and in the series with Triticum aestivum [8] was less than 10% each time.
As to `CCNC(=O)c1nc(C)c(C)nc1C(=O)Nc1cc(F)ccc1C`, the Activity with Abutilon theophrasti [1] is given as 50%; with Avena fatua [2], 10%; in the series with Veronica persica [3], 95%; in the series on Glycine max [4], less than 10%; with Galium spurium [5], less than 10%; with Echinochloa crus-galli [6] it was less than 10%. The Activity in the series on Xanthium strumarium [7] is given as 70%; with Triticum aestivum [8], less than 10%.
Consider `Cc1ccc(F)cc1NC(=O)c1nc(C)c(C)nc1C(=O)NCC(C)C`, for which the Activity in the series with Abutilon theophrasti [9] is on record as 70%; in the series on Abutilon theophrasti [1], 95%; in the series with Avena fatua [2] it was 50%; in the series on Veronica persica [3], 95%; with Glycine max [4] it was less than 10%; in the series on Galium spurium [10], less than 10%. Also, the Activity is recorded as 30% in the series with Galium spurium [5]; 10% in the series with Triticum aestivum [11]; less than 10% in the series with Galium spurium [12]; less than 10% in the series with Echinochloa crus-galli [13]; 30% with Abutilon theophrasti [14]; less than 10% with Avena fatua [15]. Further, the Activity in the series on Echinochloa crus-galli [16] is on record as less than 10%; in the series with Veronica persica [17], 95%; in the series with Veronica persica [18], 95%; in the series on Glycine max [19], less than 10%; with Echinochloa crus-galli [6] it was 30%; in the series with Xanthium strumarium [7], 95%. For the same compound, the Activity in the series on Glycine max [20] was less than 10%; with Triticum aestivum [21], 10%; in the series on Triticum aestivum [8], 30%; in the series on Avena fatua [22], 10%; in the series with Xanthium strumarium [23], less than 10%; in the series on Xanthium strumarium [24] it was 95%.
Take `CC[C@@H](C)NC(=O)c1nc(C)c(C)nc1C(=O)Nc1cc(F)ccc1C`: the Activity was 95% with Abutilon theophrasti [9]; 95% in the series on Abutilon theophrasti [1]; 30% with Avena fatua [2]; 95% with Veronica persica [3]; less than 10% in the series on Glycine max [4]; less than 10% in the series with Galium spurium [10]. For the same compound, the Activity with Galium spurium [5] was 70%; with Triticum aestivum [11], less than 10%; in the series with Galium spurium [12], 30%; with Echinochloa crus-galli [13] it was 30%; with Abutilon theophrasti [14], 30%; with Avena fatua [15], less than 10%. The Activity in the series with Echinochloa crus-galli [16] is less than 10%; with Veronica persica [17], 30%; with Veronica persica [18], 95%; in the series on Glycine max [19], less than 10%; in the series with Echinochloa crus-galli [6], 30%; in the series with Xanthium strumarium [7], 70%. Besides, the Activity in the series with Glycine max [20] was less than 10%; in the series with Triticum aestivum [21], less than 10%; in the series on Triticum aestivum [8], 50%; in the series with Avena fatua [22], less than 10%; with Xanthium strumarium [23] it was less than 10%; with Xanthium strumarium [24], 50%.
For `CC[C@H](C)NC(=O)c1nc(C)c(C)nc1C(=O)Nc1cc(F)ccc1C`, the Activity in the series with Abutilon theophrasti [9] is less than 10%; with Abutilon theophrasti [1], 70%; in the series with Avena fatua [2], 50%; in the series with Veronica persica [3], 95%; in the series with Glycine max [4], less than 10%; with Galium spurium [10], less than 10%. In addition, the Activity in the series with Galium spurium [5] was 95%; in the series with Triticum aestivum [11], less than 10%; in the series with Galium spurium [12] it was less than 10%; in the series with Echinochloa crus-galli [13], less than 10%; with Abutilon theophrasti [14], less than 10%; with Avena fatua [15], less than 10%. Also, the Activity with Echinochloa crus-galli [16] is less than 10%; in the series with Veronica persica [17], 70%; in the series on Veronica persica [18] it was 70%; in the series on Glycine max [19], less than 10%; with Echinochloa crus-galli [6], 70%; in the series on Xanthium strumarium [7], 95%. Also, the Activity with Glycine max [20] is less than 10%; in the series on Triticum aestivum [21], less than 10%; in the series on Triticum aestivum [8], 30%; in the series on Avena fatua [22], less than 10%; with Xanthium strumarium [23], less than 10%; in the series on Xanthium strumarium [24] it was less than 10%.
As to `Cc1ccc(F)cc1NC(=O)c1nc(C)c(C)nc1C(=O)NC(C)(C)C`, the Activity with Abutilon theophrasti [9] is given as less than 10%; in the series with Abutilon theophrasti [1] it was 95%; in the series with Avena fatua [2], 95%; with Veronica persica [3] it was 95%; in the series with Glycine max [4] it was less than 10%; in the series with Galium spurium [10] it was less than 10%. The Activity with Galium spurium [5] is 10%; in the series on Triticum aestivum [11], less than 10%; with Galium spurium [12], less than 10%; in the series on Echinochloa crus-galli [13], less than 10%; in the series on Abutilon theophrasti [14], less than 10%; in the series on Avena fatua [15] it was less than 10%. Also, the Activity in the series on Echinochloa crus-galli [16] is recorded as less than 10%; in the series on Veronica persica [17] it was less than 10%; with Veronica persica [18] it was 70%; in the series on Glycine max [19], less than 10%; with Echinochloa crus-galli [6] it was 70%; in the series with Xanthium strumarium [7], 95%. For the same compound, the Activity is recorded as less than 10% in the series with Glycine max [20]; less than 10% with Triticum aestivum [21]; 30% with Triticum aestivum [8]; less than 10% in the series on Avena fatua [22]; less than 10% with Xanthium strumarium [23]; less than 10% in the series on Xanthium strumarium [24].
On to `CCCCCNC(=O)c1nc(C)c(C)nc1C(=O)Nc1cc(F)ccc1C`, for which the Activity is reported as 30% in the series on Abutilon theophrasti [1]; less than 10% in the series on Avena fatua [2]; 30% in the series with Veronica persica [3]; less than 10% in the series on Glycine max [4]; less than 10% in the series on Galium spurium [5]; 30% with Echinochloa crus-galli [6]. Further, the Activity in the series with Xanthium strumarium [7] and in the series with Triticum aestivum [8] was less than 10% throughout.
For the compound `Cc1ccc(F)cc1NC(=O)c1nc(C)c(C)nc1C(=O)NCCC(C)C`, the Activity with Abutilon theophrasti [1] is 95%; in the series with Avena fatua [2], 30%; in the series on Veronica persica [3], 95%; in the series with Glycine max [4], less than 10%; in the series with Galium spurium [5], less than 10%; in the series with Echinochloa crus-galli [6], 30%. The results for the Activity with Xanthium strumarium [7] and in the series on Triticum aestivum [8] were less than 10% and 10%, respectively.
`CCC(C)NC(=O)c1nc(C)c(C)nc1C(=O)Nc1cc(F)ccc1C` (racemic): the Activity is 95% in the series with Abutilon theophrasti [9]; 95% in the series with Abutilon theophrasti [1]; 30% in the series with Avena fatua [2]; 95% with Veronica persica [3]; less than 10% in the series on Glycine max [4]; less than 10% in the series with Galium spurium [10]. Further, the Activity with Galium spurium [5] is on record as 95%; in the series on Triticum aestivum [11], 30%; with Galium spurium [12], less than 10%; in the series on Echinochloa crus-galli [13], less than 10%; with Abutilon theophrasti [14], 95%; in the series with Avena fatua [15], less than 10%. For the same compound, the Activity with Echinochloa crus-galli [16] is listed as less than 10%; in the series on Veronica persica [17], 95%; in the series with Veronica persica [18] it was 95%; in the series on Glycine max [19] it was less than 10%; in the series with Echinochloa crus-galli [6], 30%; in the series with Xanthium strumarium [7] it was 95%. In addition, the Activity in the series with Glycine max [20] is listed as less than 10%; in the series with Triticum aestivum [21], less than 10%; in the series with Triticum aestivum [8], 50%; in the series with Avena fatua [22], less than 10%; in the series on Xanthium strumarium [23] it was less than 10%.
